Laboratory results as given in PubChem BioAssay (NCI).
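Following 48 hours of exposure in 96-well plates, responses at five concentrations were used to interpolate endpoints linearly. GI50 = concentration required for 50% inhibition of growth. At the TGI there is no net growth.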 Where a SMILES comes first, the peptide text is derived from it. The star is where a group is joined. Cbz = O=C(OCc1ccccc1)*; CH2Cl = ClC*

Key:
Assay in all cases: DTP human tumour cell line panel, 48 h
[1] = tested on: UACC-257 melanoma
[2] = tested on: HT29 colon
[3] = tested on: RPMI-8226 leukemia
[4] = tested on: NCI-H522 lung
[5] = tested on: HS 578T breast
[6] = tested on: UO-31 renal
[7] = tested on: SNB-19 CNS
[8] = tested on: HOP-62 NSCLC
[9] = tested on: LXFL 529 NSCLC
[10] = tested on: M19-MEL melanoma

SMILES	GI50 [1]	TGI [1]	GI50 [2]	TGI [2]	GI50 [3]	TGI [3]	GI50 [4]	TGI [4]	GI50 [5]	TGI [5]	GI50 [6]	TGI [6]	GI50 [7]	TGI [7]	GI50 [8]	TGI [8]	TGI [9]	TGI [10]
CCOC(=O)Nc1ccc(-c2nc(-c3cccc(OCCN4CCOCC4)c3)c(-c3ccnc(Br)c3)[nH]2)cc1	2.21 µM	5.24 µM	2.9 µM	> 100 µM	1.07 µM	3.78 µM	3.31 µM	> 100 µM	1.55 µM	4.91 µM	2.72 µM	> 100 µM	3.81 µM	> 100 µM	3.1 µM	> 100 µM	–	–
Nc1nc(/C=C\c2ccc([N+](=O)[O-])s2)nc(N2CCCC2)n1	4.39 µM	15.6 µM	2.97 µM	14.8 µM	1.26 µM	4.39 µM	2.55 µM	8.67 µM	12.9 µM	59.7 µM	7.58 µM	22.2 µM	3.01 µM	21.6 µM	13.5 µM	26.7 µM	–	–
CC(=O)c1sc(Nc2nnc(-c3ccc(-c4nnc(Nc5nc(C)c(C(C)=O)s5)o4)cc3)o2)nc1C	–	> 100 µM	–	> 100 µM	–	> 100 µM	–	> 10 µM	–	–	–	> 10 µM	–	> 100 µM	–	> 100 µM	> 100 µM	–
CO/N=C(\COc1ccc2c(c1)oc(=O)c1cc(OC)ccc12)c1ccc(OC)cc1	> 100 µM	> 100 µM	> 100 µM	> 100 µM	> 100 µM	> 100 µM	> 100 µM	> 100 µM	> 100 µM	> 100 µM	> 100 µM	> 100 µM	> 100 µM	> 100 µM	> 100 µM	> 100 µM	–	–
Clc1ccc2[nH]cc(-c3nnnn3-c3ccccc3)c2c1	24.9 µM	71 µM	11.9 µM	> 70.9 µM	14.5 µM	43.3 µM	18.7 µM	> 92.5 µM	15.4 µM	> 60.8 µM	26.9 µM	> 100 µM	38.4 µM	> 100 µM	28 µM	> 100 µM	–	–
Cc1nn(-c2ccc(Cl)cc2)c2nc3c(nc12)C(=O)c1ccccc1-3	> 100 µM	> 100 µM	> 100 µM	> 100 µM	> 100 µM	> 100 µM	> 100 µM	> 100 µM	15.7 µM	> 100 µM	> 100 µM	> 100 µM	> 100 µM	> 100 µM	13.7 µM	> 100 µM	–	–
[Cl][Hg][c]1cc[c]([Hg][Cl])o1	7.93 µM	28.8 µM	2.99 µM	9.88 µM	1.66 µM	7.34 µM	0.367 µM	1.69 µM	3.71 µM	> 100 µM	1.98 µM	3.96 µM	3.44 µM	15.8 µM	13.5 µM	28.4 µM	–	–
COc1ccc2[nH]cc(C3(c4c[nH]c5ccc(OC)cc45)C(=O)Nc4ccc(F)cc43)c2c1	2.2 µM	6.23 µM	2.44 µM	6.14 µM	4.41 µM	> 100 µM	1.81 µM	3.77 µM	3.13 µM	14.8 µM	1.51 µM	11.9 µM	3.28 µM	14.6 µM	3.09 µM	13 µM	–	–
CC(C)Oc1ccc2cc(-c3nn(CC4CCNCC4)c4ncnc(N)c34)ccc2c1	1.95 µM	3.98 µM	2.78 µM	12.2 µM	3.1 µM	12.9 µM	11 µM	25.4 µM	9.4 µM	32.2 µM	4.15 µM	18.9 µM	12.7 µM	26 µM	15.6 µM	31.4 µM	–	–
COc1ccc(/C=C2/N=C(c3ccccc3)N(c3c(C)n(C)n(-c4ccccc4)c3=O)C2=O)cc1OC	> 100 µM	> 100 µM	> 100 µM	> 100 µM	> 100 µM	> 100 µM	> 100 µM	> 100 µM	60 µM	> 100 µM	> 100 µM	> 100 µM	> 100 µM	> 100 µM	> 100 µM	> 100 µM	–	–
CCn1c2ccccc2c2cc(NC(=O)Nc3ccc([N+](=O)[O-])cc3C)ccc21	16.6 µM	68.7 µM	3.01 µM	15.6 µM	1.4 µM	4.01 µM	1.96 µM	7.64 µM	2.2 µM	8 µM	2.68 µM	17.1 µM	8.95 µM	> 100 µM	5.02 µM	55.2 µM	–	–
COC(=O)C(Cc1nc2ccc(Cl)cc2[nH]c1=O)/C(=N\N)C(=O)Nc1cc(C)c(Cl)cc1S(=O)(=O)O (configuration not stated)	–	> 100 µM	–	> 100 µM	–	> 100 µM	–	> 100 µM	–	–	–	> 100 µM	–	> 100 µM	–	> 100 µM	> 100 µM	–
CCOC(=O)C(=[N+]=[N-])[Si](C)(C)C	–	> 100 µM	–	> 100 µM	–	–	–	–	–	–	–	–	–	> 100 µM	–	49.7 µM	–	> 100 µM
O=C(c1ccccc1)c1cc2ccccc2o1	77.9 µM	> 100 µM	76.1 µM	> 100 µM	91.8 µM	> 100 µM	82.1 µM	> 100 µM	37.5 µM	> 100 µM	21.3 µM	> 100 µM	> 100 µM	> 100 µM	> 100 µM	> 100 µM	–	–
CC(C)CC(NC(=O)OCc1ccccc1)C(=O)NC(Cc1ccccc1)C(=O)CCl (stereo not drawn) (Cbz-Leu-Phe-CH2Cl; configuration not given here)	–	23.7 µM	–	7.54 µM	–	5.15 µM	–	2.74 µM	–	25.7 µM	–	18.2 µM	–	> 56.8 µM	–	30.5 µM	–	–
COc1ccc(CC2NCCc3c2[nH]c2ccccc32)cc1 (configuration not stated)	–	–	–	> 100 µM	–	> 100 µM	–	–	–	–	–	> 100 µM	–	> 100 µM	–	> 100 µM	> 100 µM	> 100 µM
